{"source": "patent US20230405003A1", "about": "“APPLICATION OF THYMIDINE DERIVATIVE IN PREPARATION OF DRUGS” (ONQUALITY PHARMACEUTICALS CHINA LTD., priority 2020, published 2023)", "key": {"blood cells": {"system": "blood cells", "test": "Blood cell count after 5-FU diarrhea experiment in mice", "type": "in vivo, mouse", "conditions": "orbital blood after 5-FU 70 mg/kg/d i.p. three days", "description": "After completion of the experiments, the mice in the 5-FU control group and the experimental group were subject to blood collection at orbital. Blood cells were counted."}, "[1]": {"system": "human colon cancer cell HCT116 xenograft", "test": "Effect of thymidine derivative gel on therapeutical effect of capecitabine, HCT116 xenograft nude mice", "type": "in vivo, mouse", "conditions": "oral capecitabine 1.5 mmol/kg, 14 days", "protocol": "A BALB/C nude mouse (human colon cancer cell HCT116 xenograft) model was established. After the model was stable, the model mice were divided into four groups (in which the average tumor size of each of the 4 groups was kept as consistent as possible). Except the blank group (containing 5 mice), there were 10 mice in each group, which were subject to gavage and application experiments.\nCapecitabine was dissolved in a mixed solution of castor oil:ethanol=1:1 (volume ratio). Prior to gavage, the mixture was diluted with PBS to the desired concentration (diluted for about 3 times with PBS solution). […]\nA: Group of blank: 5 mice with tumors, no gavage and no drug application; B: blank group: 10 mice with tumors, oral gavage with capecitabine (1.5 mmol/kg), application with blank gel on the back (once per day for 14 days); C: 0.5% T1 group: 10 mice with tumors, oral gavage of capecitabine, application with 0.5% T1 gel (administration method and frequency are the same as those in group B); D: 2% T1 gel group: 10 mice with tumors, oral gavage of capecitabine, application of 2% T1 gel (administration method and frequency are the same as those in group B). […] The tumor size was measured and recorded every 2 days. After 14 days of the experiment, the mice were dissected to take out the tumor, which was weighed and recorded."}, "[2]": {"system": "hand-foot syndrome caused by Doxorubicin in rats", "test": "Rat model of hand-foot syndrome caused by doxorubicin, gel application", "type": "in vivo", "conditions": "Doxorubicin 7 mg/kg tail intravenous injection once every three days for 20 days, gel 3 wt%, 30 days", "protocol": "(§1) After SD rats were fed and adapted for one week (about 200 g), the rats were divided into groups, with 10 rats in each group. Then, the rats were subject to gavage administration. Capecitabine was dissolved in a 1:1 mixed solution of castor oil and ethanol and diluted for three times with PBS buffer. After gavage, the rats were fixed with a fixed cylinder, and a gel of thymidine derivative (or a compounded gel of thymidine derivative and uridine derivative) was applied to double hind paws (about 1 cm*3 cm) of the rats in group of administration (the types and concentrations are shown in Table 4), and a blank gel was applied to the group of blank (as a blank control). After approximately 4 hours of application, the rats were released after 4 hours, wiped with clean water to remove any residual drug at the application site, and allowed back to the cage. The thymidine derivative gel (or the compounded gel of thymidine derivative and uridine derivative) was administered with gavage every day. The gavage and application tests are repeated daily until the group of blank has developed obvious hand-foot syndrome.\n(§2) The effects of thymidine derivative or a combination of thymidine derivative and uridine derivative on the chemotherapeutic drug-induced hand-foot syndrome in a rat model were tested according to the method in Examples 30-40. At the same time, paws of rats after treatment with the drug were taken and observed for their inflammation by hematoxylin-eosin staining (HE) and immunohistochemical staining (IHC).\n(§3) The test thymidine derivative or the combination of thymidine derivative and uridine derivative, as well as the final concentration of the test compounds were shown in Table 8. Table 8 lists the animal experiment combination of a chemotherapeutical drug and the thymidine derivative gel (or the compound gel of thymidine derivative and uridine derivative) and the corresponding experimental results (wherein, the data in the column of control rate=the occurrence rate of hand-foot syndrome in Group of blank—the occurrence rate of hand-foot syndrome in Group of administration)."}, "HaCaT cells": {"system": "HaCaT cells", "test": "Relief of 5-FU proliferative toxicity to HaCaT cells (CCK-8 cell survival)", "type": "cell-based", "conditions": "for Cell Survival Rate (increased percentage of cell survival compared with the Group of 5-FU): 5-Fu 20 μM, HaCaT cells", "method_in_brief": "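HaCaT keratinocytes (5000–10000/well) cultured 24 h, then exposed 48 h to 5-FU alone or with thymidine derivative, or thymidine plus uridine derivative mix, versus solvent-matched blanks. Survival by CCK-8; value is % increase in survival over 5-FU alone, t-test.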"}, "[3]": {"system": "hand-foot syndrome caused by capecitabine in SD rats", "test": "Rat model of hand-foot syndrome caused by capecitabine, gel application", "type": "in vivo", "conditions": "capecitabine 4000 mg/kg once daily, 40 days; for inhibition in vivo at 3 % / inhibition in vivo at 5 %: Rattus norvegicus, topical, 960 h, rats; for inhibition in vivo at 3 %: gel 3 wt%; for inhibition in vivo at 5 %: gel 5 wt%", "protocol": "A rat animal model was established. 6-week aged female SD rats were administered with capecitabine by daily gavage. The degree of hand-foot syndrome in paws is similar, and there was no difference between the left and right paws. Similar to the human body, rats developed hand-foot syndrome after oral administration of capecitabine. The causes of the two are the same, and the disorder is also very similar. Therefore, rats are very good animal models for simulating the hand-foot syndrome caused by capecitabine.\nas §1\nTable 4 lists the combinations of animal experiments of capecitabine and the thymidine derivative gel (or the compounded gel of thymidine derivative and uridine derivative) and the corresponding experimental results (wherein, the data in the column of control rate=the occurrence rate of hand-foot syndrome in group of blank—the occurrence rate of hand-foot syndrome in group of administration). […]"}, "[4]": {"system": "pain in capecitabine hand-foot syndrome rats", "test": "Pain of hand-foot syndrome, mechanical sensitivity in rats (von Frey)", "type": "in vivo, rat", "conditions": "capecitabine 4000 mg/kg hand-foot syndrome rats; thymidine derivative 3%", "protocol": "According to the method of Examples 91-115, after administration of a thymidine derivative (at a concentration of 3%) and co-administration of a thymidine derivative (at a concentration of 1%) with a uridine derivative (at a concentration of 3%) to rat hand-foot syndrome models constructed from 4000 mg/kg of capecitabine for a period of time, pain analysis was performed on the rats, and the pain assessment model was mechanical sensitivity in rats (von Frey). The experimental steps were as follows: first, the rats were allowed to adapt in the room for 1 hour, then the rats were placed in an observation box with a metal mesh floor, and the mice were allowed to stay in the box for 20 minutes to adapt to the experimental platform. Next, a von Frey device was used to detect paw pain by stimulating the surface of the rat's palm with specially designed cilia to detect the mechanical sensitivity of the animal at strength of 0.4 g, 0.8 g, 1.5 g, 2.5 g, 4 g, 8 g, 10 g and 20 g (IITC Life Science, Woodland Hills, 2390 series). […] The rat movement response was considered to be a vague response, in which case the stimulation experiment was repeated."}, "[5]": {"system": "hand-foot syndrome caused by Cytarabine in rats", "test": "Rat model of hand-foot syndrome caused by cytarabine, gel application", "type": "in vivo", "conditions": "Cytarabine 120 mg/kg twice per day, gel 3 wt%, 30 days", "protocol": "as §1, §2, §3"}, "[6]": {"system": "hand-foot syndrome caused by Acelarin (NUC-1031) in rats", "test": "Rat model of hand-foot syndrome caused by Acelarin (NUC-1031), gel application", "type": "in vivo", "conditions": "Acelarin (NUC-1031) 130 mg/kg intraperitoneal injection twice a week, gel 3 wt%, 30 days", "protocol": "as §1, §2, §3"}, "[7]": {"conditions": "selected compound final concentration 12.5 μM"}, "[8]": {"conditions": "selected compound final concentration 25 μM"}, "[9]": {"conditions": "selected compound final concentration 50 μM"}, "[10]": {"conditions": "read-out: Control Rate Forepaws"}, "[11]": {"conditions": "read-out: Control Rate Hindpaws"}}, "note": "Like-named read-outs stand apart in the source and are kept apart here.", "data": [{"smiles": "O=c1[nH]cc(F)c(=O)[nH]1", "note": "[5-FU, fluorouracil (5-FU)]", "values": [{"measurement": "blood cells", "setting": "blood cells", "result": "can reduce all the blood cells that could be detected"}]}, {"smiles": "CCCCCOC(=O)Nc1nc(=O)n([C@@H]2O[C@H](C)[C@@H](O)[C@H]2O)cc1F", "note": "[capecitabine, reference compound]", "values": [{"measurement": "volume of tumor tissue versus group without capecitabine gavage", "setting": "[1]", "result": "significantly smaller than that in Group A"}]}, {"smiles": "COc1ccc2cc([C@@H](C)C(=O)OC[C@H]3O[C@@H](n4cc(C)c(=O)[nH]c4=O)C[C@@H]3O)ccc2c1", "note": "[T41]", "values": [{"measurement": "Control Rate Forepaws", "setting": "[2]", "result": 57.14, "unit": "%"}, {"measurement": "Control Rate Hindpaws", "setting": "[2]", "result": 42.86, "unit": "%"}, {"measurement": "Cell Survival Rate (increased percentage of cell survival compared with the Group of 5-FU)", "setting": "HaCaT cells; [7]", "result": "39%-46%"}, {"measurement": "Cell Survival Rate (increased percentage of cell survival compared with the Group of 5-FU)", "setting": "HaCaT cells; [8]", "result": "47%-55%"}, {"measurement": "Cell Survival Rate (increased percentage of cell survival compared with the Group of 5-FU)", "setting": "HaCaT cells; [9]", "result": "44%-51%"}, {"measurement": "inhibition in vivo at 3 %", "setting": "[3]; [10]", "result": 50, "unit": "%"}, {"measurement": "inhibition in vivo at 3 %", "setting": "[3]; [11]", "result": 62.5, "unit": "%"}, {"measurement": "inhibition in vivo at 5 %", "setting": "[3]; [10]", "result": 50, "unit": "%"}, {"measurement": "inhibition in vivo at 5 %", "setting": "[3]; [11]", "result": 75, "unit": "%"}, {"measurement": "pain in rats (von Frey mechanical sensitivity)", "setting": "[4]", "result": "could significantly improve pain in rats"}]}, {"smiles": "Cc1cn([C@H]2C[C@H](O)[C@@H](COC(=O)C(C)(C)C)O2)c(=O)[nH]c1=O", "note": "[T4]", "values": [{"measurement": "activation at 1 µM", "setting": "HaCaT cells; Homo sapiens, HaCaT, increase vs Group of 5-FU, 5-FU 20 μM, compound 1 μM, 48 h, read-out: Cell Survival Rate", "result": "20 to 36", "unit": "%"}, {"measurement": "activation at 10 µM", "setting": "HaCaT cells; Homo sapiens, HaCaT, increase vs Group of 5-FU, 5-FU 20 μM, compound 10 μM, 48 h, read-out: Cell Survival Rate", "result": "65 to 72", "unit": "%"}, {"measurement": "activation at 100 µM", "setting": "HaCaT cells; Homo sapiens, HaCaT, increase vs Group of 5-FU, 5-FU 20 μM, compound 100 μM, 48 h, read-out: Cell Survival Rate", "result": "80 to 90", "unit": "%"}, {"measurement": "activation at 500 µM", "setting": "HaCaT cells; Homo sapiens, HaCaT, increase vs Group of 5-FU, 5-FU 20 μM, compound 500 μM, 48 h, read-out: Cell Survival Rate", "result": "70 to 77", "unit": "%"}, {"measurement": "activation at 1000 µM", "setting": "HaCaT cells; Homo sapiens, HaCaT, increase vs Group of 5-FU, 5-FU 20 μM, compound 1000 μM, 48 h, read-out: Cell Survival Rate", "result": "2 to 7", "unit": "%"}, {"measurement": "inhibition in vivo at 3 %", "setting": "[3]; [10]", "result": 28.6, "unit": "%"}, {"measurement": "inhibition in vivo at 3 %", "setting": "[3]; [11]", "result": 42.9, "unit": "%"}, {"measurement": "Control Rate", "setting": "[3]; SD rats, gel 2 wt% on hind paws", "result": 32.86, "unit": "%"}, {"measurement": "pain in rats (von Frey mechanical sensitivity)", "setting": "[4]", "result": "did not significantly improve pain in rats"}]}, {"smiles": "CC(=O)Oc1ccccc1C(=O)OC[C@H]1O[C@@H](n2cc(C)c(=O)[nH]c2=O)C[C@@H]1O", "note": "[T37]", "values": [{"measurement": "Control Rate Forepaws", "setting": "[5]", "result": 22.22, "unit": "%"}, {"measurement": "Control Rate Hindpaws", "setting": "[5]", "result": 44.44, "unit": "%"}, {"measurement": "Control Rate Forepaws", "setting": "[6]", "result": 42.86, "unit": "%"}, {"measurement": "Control Rate Hindpaws", "setting": "[6]", "result": 71.43, "unit": "%"}, {"measurement": "Cell Survival Rate (increased percentage of cell survival compared with the Group of 5-FU)", "setting": "HaCaT cells; selected compound final concentration 0.8 μM", "result": "36%-44%"}, {"measurement": "Cell Survival Rate (increased percentage of cell survival compared with the Group of 5-FU)", "setting": "HaCaT cells; selected compound final concentration 1.6 μM", "result": "55%-62%"}, {"measurement": "Cell Survival Rate (increased percentage of cell survival compared with the Group of 5-FU)", "setting": "HaCaT cells; selected compound final concentration 3.13 μM", "result": "61%-69%"}, {"measurement": "Cell Survival Rate (increased percentage of cell survival compared with the Group of 5-FU)", "setting": "HaCaT cells; selected compound final concentration 6.25 μM", "result": "68%-76%"}, {"measurement": "Cell Survival Rate (increased percentage of cell survival compared with the Group of 5-FU)", "setting": "HaCaT cells; [7]", "result": "52%-60%"}, {"measurement": "Cell Survival Rate (increased percentage of cell survival compared with the Group of 5-FU)", "setting": "HaCaT cells; [8]", "result": "49%-57%"}, {"measurement": "Cell Survival Rate (increased percentage of cell survival compared with the Group of 5-FU)", "setting": "HaCaT cells; [9]", "result": "52%-59%"}, {"measurement": "inhibition in vivo at 3 %", "setting": "[3]; [10]", "result": 28.6, "unit": "%"}, {"measurement": "inhibition in vivo at 3 %", "setting": "[3]; [11]", "result": 42.9, "unit": "%"}, {"measurement": "pain in rats (von Frey mechanical sensitivity)", "setting": "[4]", "result": "could significantly improve pain in rats"}]}]}
